Measurements published in ChEMBL document CHEMBL1770077, “Synthesis, modelling and kinetic assays of potent inhibitors of purple acid phosphatase” (Bioorg Med Chem Lett, 2011).

target: not listed separately; test: Competitive inhibition of pig PAP using para-nitrophenol as substrate at pH 4.9 preincubated for 10 mins by UV-visible spectrophotometry; set-up: species or system Sus scrofa

Ki [µM] | SMILES
363 | CCCC(=O)NC(c1cccc2ccccc12)P(=O)(O)O (racemic)
116 | CCCCCCC(=O)NC(c1cccc2ccccc12)P(=O)(O)O (racemic)
44 | CCCCCCCC(=O)NC(c1cccc2ccccc12)P(=O)(O)O (racemic)
10 | CCCCCCCCCC(=O)NC(c1cccc2ccccc12)P(=O)(O)O (racemic)
21 | CCCCCCCCCCCC(=O)NC(c1cccc2ccccc12)P(=O)(O)O (racemic)
8 | CCCCCCCCCCCCCC(=O)NC(c1cccc2ccccc12)P(=O)(O)O (racemic)
13 | CCCCCCCCCCCCCCCC(=O)NC(c1cccc2ccccc12)P(=O)(O)O (racemic)

target: not listed separately; test: Uncompetitive inhibition of pig PAP using para-nitrophenol as substrate at pH 4.9 preincubated for 10 mins by UV-visible spectrophotometry; set-up: species or system Sus scrofa

Ki [µM] | SMILES
1440 | CCCC(=O)NC(c1cccc2ccccc12)P(=O)(O)O (racemic)
349 | CCCCCCC(=O)NC(c1cccc2ccccc12)P(=O)(O)O (racemic)

target: T1, Fe(3+)-Zn(2+) purple acid phosphatase (Phaseolus vulgaris, UniProt P80366); test: Competitive inhibition of red kidney bean PAP using para-nitrophenol as substrate at pH 4.9 preincubated for 10 mins by UV-visible spectrophotometry
T1 sequence (P80366 whole entry): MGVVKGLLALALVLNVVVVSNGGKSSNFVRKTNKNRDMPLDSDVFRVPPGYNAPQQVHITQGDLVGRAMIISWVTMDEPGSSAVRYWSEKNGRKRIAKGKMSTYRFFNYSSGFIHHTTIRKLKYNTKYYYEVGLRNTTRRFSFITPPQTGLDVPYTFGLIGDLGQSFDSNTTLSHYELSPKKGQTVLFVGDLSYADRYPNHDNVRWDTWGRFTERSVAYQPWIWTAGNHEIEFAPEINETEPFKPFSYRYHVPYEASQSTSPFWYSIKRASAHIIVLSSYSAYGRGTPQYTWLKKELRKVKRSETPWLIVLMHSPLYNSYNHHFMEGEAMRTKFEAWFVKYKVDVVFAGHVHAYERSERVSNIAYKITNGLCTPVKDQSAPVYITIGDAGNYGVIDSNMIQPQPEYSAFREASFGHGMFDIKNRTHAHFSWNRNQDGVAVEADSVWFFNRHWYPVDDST

Ki [µM] | SMILES
238 | CCCC(=O)NC(c1cccc2ccccc12)P(=O)(O)O (racemic)
222 | CCCCCCC(=O)NC(c1cccc2ccccc12)P(=O)(O)O (racemic)
195 | CCCCCCCC(=O)NC(c1cccc2ccccc12)P(=O)(O)O (racemic)
57 | CCCCCCCCCC(=O)NC(c1cccc2ccccc12)P(=O)(O)O (racemic)
5 | CCCCCCCCCCCC(=O)NC(c1cccc2ccccc12)P(=O)(O)O (racemic)
11 | CCCCCCCCCCCCCC(=O)NC(c1cccc2ccccc12)P(=O)(O)O (racemic)
31 | CCCCCCCCCCCCCCCC(=O)NC(c1cccc2ccccc12)P(=O)(O)O (racemic)

target: T1, Fe(3+)-Zn(2+) purple acid phosphatase; test: Uncompetitive inhibition of red kidney bean PAP using para-nitrophenol as substrate at pH 4.9 preincubated for 10 mins by UV-visible spectrophotometry

Ki [µM] | SMILES
654 | CCCC(=O)NC(c1cccc2ccccc12)P(=O)(O)O (racemic)
446 | CCCCCCC(=O)NC(c1cccc2ccccc12)P(=O)(O)O (racemic)
443 | CCCCCCCC(=O)NC(c1cccc2ccccc12)P(=O)(O)O (racemic)
102 | CCCCCCCCCC(=O)NC(c1cccc2ccccc12)P(=O)(O)O (racemic)
